Assay results published in patent US9840532B2, “5′-substituted nucleoside compounds” (Eli Lilly and Company, priority 2015, dated 2017).

Test system: MDM4 and SmD1-me2S
Assay: Mouse A375 Tumor Xenograft MDM4 and SmD1-me2S Western Blot Assay
Type: in vivo
Conditions: A-375, PO given QD or BID, tumors 4 hr after last dose, 4 days of dosing, read-out: dose achieving 50% effect (ED50)
Procedure: Grow A375 cells in medium (DMEM high glucose/10% Hi FBS) at 37° C. in an incubator (5% CO2) for 18-24 hr. Mix the cells with MATRIGEL® (1:1) and implant the cells (5×10^6/animal) subcutaneously into the rear flank of the mice (female nude mice, Harlan). The implanted tumor cells grow as solid tumors. Measure the tumor volume and body weight twice a week with a caliper. After tumor volume reaches approximately 200-250 mm^3 (about 20 days after implant), randomize the animals, and group them into compound treatment groups. Administer the test compounds (formulated in SWFI with 1% HEC/0.25% TWEEN® 80/0.05% Antifoam) by oral gavage. Test compound doses are in the range of 3 to 100 mg/kg. Sacrifice mice 4 hr after the last dose (4 days of dosing).
Mouse A375 Tumor Xenograft MDM4 and SmD1-me2S Western Blot Assay
For western blotting, homogenize the tumor tissues as performed above in 500 μL of kit XY lysis buffer including protease inhibitor cocktail complete Mini (Roche, cat. #: 11 836 170 001) [this cocktail contains […] Trypsin-Chymotrypsin Inhibitor (Sigma cat. # T9777); 10 μg/mL TPCK (Sigma cat. # T4376); 10 μg/mL Aprotinin (Sigma cat. # A1153); 60 mM Beta-Glycerophosphate disodium salt hydrate (Sigma cat. # G9891); 1% TRITON™ X-100 (Sigma cat. # T9284); 25 mM Tris pH ˜7.5 (INVITROGEN™ cat. #15567-027); 2.5 mM sodium pyrophosphate dibasic (Fluka cat. #71501); 300 mM […] (Mallinckrodt cat. #7581); 2 mM TAME (Sigma cat. # T4626); 15 mM pNPP (pNPP disodium salt hexahydrate, Sigma cat. #P4744); 5 mM benzamidine hydrochloride hydrate (Sigma cat. #B6506); 10 mM sodium fluoride (Sigma cat. #S-7920); 1 mM sodium metavanadate anhydrous (Sigma cat. #59088); […]. 1 mM DTT (Sigma cat. # D9779); 15 mM EDTA pH ˜8.0 (INVITROGEN™ cat. #15575020); 5 mM EGTA pH ˜8.0 (Sigma cat. #E3889); […] (Fisher/Axxora cat. # A350012m001); 0.25 mM Pefa Bloc (Sigma cat. #76307). Spin the protein lysates down at 8,000 rpm for 10 min and transfer supernatants to 1.5 mL tubes for sonication (amplitude 25% yield) for 15 seconds. […]

Row | Compound | ED50 [mg/kg]
1 | Nc1ncnc2c1ccn2[C@@H]1O[C@H]([C@H](O)c2ccccc2)[C@@H](O)[C@H]1O [Example 2, (2R,3R,4S,5R)-2-(4-Aminopyrrolo[2,3-d]pyrimidin-7-yl)-5[(R)-hydroxy(phenyl)methyl]tetrahydrofuran-3,4-diol] | ≤ 30
2 | Nc1ncnc2c1ccn2[C@@H]1O[C@H]([C@H](O)c2ccc(Cl)cc2)[C@@H](O)[C@H]1O [Example 1, (2R,3R,4S,5R)-2-(4-Aminopyrrolo[2,3-d]pyrimidin-7-yl)-5-[(R)-(4-chlorophenyl)-hydroxy-methyl]tetrahydrofuran-3,4-diol] | ≤ 30
3 | C[C@@](O)(c1ccc(Cl)cc1)[C@H]1O[C@@H](n2ccc3c(N)ncnc32)[C@H](O)[C@@H]1O [Example 3, (2R,3R,4S,5S)-2-(4-Aminopyrrolo[2,3-d]pyrimidin-7-yl)-5-[(1R)-1-(4-chlorophenyl)-1-hydroxy-ethyl]tetrahydrofuran-3,4-diol] | ≤ 30
